8 compounds from patent publication US20120214824A1, “PROTEOSTASIS REGULATORS” (priority 2010, published 2012) can be followed below.

One assay deals with HspA5. Put plainly: Multigene assay (QuantiGene Plex 2.0), mouse MEF cell line. It is filed as cell-based. As to conditions: 6 hours post-compound treatment. As for the experimental part:
(§1) This assay used the QuantiGene Plex 2.0 Reagent System from Affymetrix. This assay combines the use of bDNA (branch DNA) and xMAP magnetic capture beads from Luminex Technologies to quantitatively and simultaneously detect multiple mRNA transcripts per well. The overall procedure was performed according to the QuantiGene Plex 2.0 Reagent System instruction manual from Affymetrix.
(§2) Cells were seeded at a density of 12,000 cells/well in 96-well plates with an overnight incubation at 37° C., 5% CO2. Cells were treated with serially diluted compounds in a 7-point dose dependent manner. Cell lysis with 50% [v/v] Panomics Lysis Mixture (Lysis Mixture+10 μl/ml 25 Proteinase K) was performed 6 hours post-compound treatment. Lysed cells were heated at 50° C. to ensure appropriate lysing and the plates were then frozen at −80° C. Cell lysates, thawed at room temperature on the day of the assay, were pooled with mouse 8-gene multiplex probe sets and with 8 different sets of magnetic capture beads (Luminex Technology, Austin, Tex.) in a 100 μl/well volume. Biomek FX was used at every liquid transfer step. The eight plates containing lysate-probe-bead mixtures were incubated at 54° C.±1° C. on a shaking platform for an overnight incubation in the dark (18-20 hours). The following day the hybridization plates were compressed by transferring the hybridized lysates into a single magnetic capture plate. The plate was kept on a magnet to hold the beads and then washed with Panomics Wash Buffer 2.0 on a BioTek ELx405 select plate washer to remove any unbound sample. This step was followed by serial hybridizations and washings of the bDNA pre-amplifier (1 hour, 50° C.), bDNA amplifier (1 hour, 50° C.), label probe (1 hour, 50° C.), and streptavidin-phycoerythrin (SAPE, 30 minutes, room temperature). (Zhang, A. et al. Small interfering RNA and gene expression analysis using a multiplex branched DNA assay without RNA purification. J Biomol Screen 10, 549-56 (2005)). The plate was then washed with SAPE wash buffer to remove unbound SAPE and each well was analyzed with the Luminex FlexMap3D (Luminex, Austin, Tex.). SAPE fluorescence measured from each bead was proportional to the number of mRNA transcripts captured by the beads (Zheng, Z., Luo, Y. & McMaster, G. K. Sensitive and quantitative measurement of gene expression directly from a small amount of whole blood. Clin Chem 52, 1294-302 (2006)). Fold changes in gene expression were obtained for each gene per well by normalizing the raw data first to the DMSO control and then to a housekeeping gene (TBP-TATA binding protein or Tub1-alpha-tubulin).

Another assay relates to BCL2. Described as above. It is filed as cell-based. The following applies: 6 hours post-compound treatment. How it is done: as §1, §2
In a further assay the test system is HMOX. Described as above. The assay is classed as cell-based. As to conditions: 6 hours post-compound treatment. As for the experimental part: as §1, §2
A further assay relates to HSPA1a. The assay is described as above. It is filed as cell-based. As to conditions: 6 hours post-compound treatment. How it is done:
as §1, §2

For another assay, the system named is TUB1. The description is as above. The assay is classed as cell-based. As to conditions: 6 hours post-compound treatment. As for the experimental part:
as §1, §2

The next assay concerns DDIT3. The description is as above. The assay is classed as cell-based. The following applies: 6 hours post-compound treatment. How it is done:
as §1, §2

Another assay deals with GCLM. The description is as above. It is filed as cell-based. The following applies: 6 hours post-compound treatment. As for the experimental part: as §1, §2
The test system of a further assay is firefly luciferase. Nature of the assay: Luciferase folding assay (Lucif.). It is filed as cell-based, human. As to conditions: HeLa-luciferase cells; for Lucif. (luciferase activity induction): Table 1a. From the text:
Firefly luciferase is a commonly used bioluminescent reporter. This monomeric enzyme of 61 kDa catalyzes a two-step oxidation reaction to yield light, usually in the green to yellow region, typically 550-570 nm. The first step of this reaction is activation of the luciferyl carboxylate by ATP to yield a reactive mixed anhydride. In the second step, the activated intermediate reacts with oxygen to create a transient dioxetane that breaks down to the oxidized products, oxyluciferin and CO2. Upon mixing with substrates, firefly luciferase produces an initial burst of light that decays over about 15 seconds to a low level of sustained luminescence. This kinetic profile reflects the slow release of the enzymatic product, thus limiting catalytic turnover after the initial reaction.
This mammalian cell based assay that used firefly luciferase as a sensor was used to screen for compounds that may modulate the cellular folding environment.
HeLa luciferase cell lines: Frozen bullets containing the cells were thawed briefly at 37° C. then placed into a T-150 flask containing 30-35 ml DMEM medium+Penicillin/Strep (1% final+10% FBS (final)+Geneticin @ 200-500 ug/ml. Cell cultures were maintained at 37° C. with 5% CO2 and water in the bottom of the incubator to keep cells healthy. Upon expanding cell line, luciferase measurements were taken to make sure that activity levels were between 2000-5000 (RLU) when plated at 15K/well in a 96-well format (Bright-Glo Promega) before compound treatment.
Compound treatment of HeLa-luciferase cells: HeLa-luciferase WT cells were plated in a 96-well format at 15K/well the day prior to performing compound treatment and/or luciferase assay. […] Final volume used per well was 90 uL. Flat bottom, white polystyrene plates were used for plating the cells.
For compound treatment, stocks of compounds were made up at 10 mM concentration in DMSO. Stocks compounds were diluted by 100× fold in the same media used for culturing the cells—this leads to a 0.1 mM (or 100 uM) concentration. After diluting the compound in media, 10 uL of the 100 uM solution was placed into each well of cells (90 uL); making the final concentration of the compound 10 uM. If serial dilutions of compounds were tested, serial dilutions of compounds were first made in DMSO accordingly, and further diluted in the media, prior to adding to cells. This procedure allowed for constant final levels of DMSO concentrations, regardless of initial compound concentration.
Performing luciferase activity assay: Bright-Glo Luciferase Assay Reagent (Promega cat #: E2610, E2620, E2650) was thawed out at RT in a water bath. Alternatively, Bright-Glo Luciferase assay buffer (prior to mixing with substrate) was stored overnight at RT, prior to using.
Following compound treatment, plates were removed from 37° C. and allowed to acclimate to RT for 5-10 min. Bright-Glo reagent was added to each cell-containing well in a 1:1 ratio (e.g., 100 uL of Bright Glo for each 100 uL cells).
Plates were placed on a plate shaker for 5 min, removing any air bubbles on the surface (which may interfere with proper reads), and then read on an EnVision 2104 Multilabel reader, Emission filter Luminescence 700, barcode 212, WL 400-700 nm.
Data for representative compounds in this assay are shown under the heading “Lucif.”

`CC1=C(C#N)C(c2ccccc2OC(C)C)C2=C(CC(c3ccccc3)CC2=O)N1` (stereo not shown) [drawing 27/Me/CN/o-OCHMe2/H]: the HspA5 gene induction entry in the assay on HspA5 (Table 2b) is given as “− (− Indicates less than 2 fold induction)”. For the same compound, the BCL2 gene induction result in the assay on BCL2 (Table 2b) is given as “− (− Indicates less than 2 fold induction)”. Besides, in the assay on HMOX (Table 2b), the HMOX gene induction result is “− (− Indicates less than 2 fold induction)”. The HSPA1a gene induction entry in the assay with HSPA1a (Table 2b) is “− (− Indicates less than 2 fold induction)”. The TUB1 gene induction entry with TUB1 (Table 2a) is “− (− Indicates less than 2 fold induction)”. Further, the DDIT3 gene induction entry in the assay on DDIT3 (Table 2a) is on record as “− (− Indicates less than 2 fold induction)”. The GCLM gene induction result in the assay with GCLM (Table 2a) is given as “− (− Indicates less than 2 fold induction)”. Further, the “Lucif (luciferase activity induction)” value in the assay with firefly luciferase (Table 2a) is given as “+ (+ indicates a induction of greater than 2 fold)”.

With `CC1=C(C(=O)OCC(C)C)C(c2ccc(F)cc2)C2=C(CC(c3cccs3)CC2=O)N1` (stereo not shown) [drawing 26/Me/COOCH2CHMe2/p-F #1], the “Lucif. (luciferase activity induction)” value with firefly luciferase is reported as “+ (+ indicates a induction of greater than 2 fold)”.

In the case of `CC1=C(C#N)C(c2ccc(F)cc2)C2=C(CC(c3cccs3)CC2=O)N1` (stereo not shown) [drawing 26/Me/CN/p-F], in the assay with HspA5 (Table 1b), the HspA5 gene induction result was “− (− Indicates less than 2 fold induction)”. In addition, the BCL2 gene induction entry with BCL2 (Table 1b) is “− (− Indicates less than 2 fold induction)”. In addition, in the assay with HMOX (Table 1b), the HMOX gene induction entry is reported as “− (− Indicates less than 2 fold induction)”. Besides, in the assay on HSPA1a (Table 1b), the HSPA1a gene induction entry is given as “− (− Indicates less than 2 fold induction)”. The TUB1 gene induction entry in the assay on TUB1 (Table 1a) was “− (− Indicates less than 2 fold induction)”. For the same compound, in the assay on DDIT3 (Table 1a), the DDIT3 gene induction entry is recorded as “− (− Indicates less than 2 fold induction)”. In addition, the GCLM gene induction entry in the assay on GCLM (Table 1a) is recorded as “− (− Indicates less than 2 fold induction)”. Further, in the assay with firefly luciferase, the “Lucif. (luciferase activity induction)” value is given as “+ (+ indicates a induction of greater than 2 fold)”.

`CC1=C(C#N)C(c2ccc(F)cc2)C2=C(CC(c3ccccc3)CC2=O)N1` (stereo not shown) [drawing 27/Me/CN/p-F/H]: in the assay with HspA5 (Table 2b), the HspA5 gene induction entry was “− (− Indicates less than 2 fold induction)”. Besides, the BCL2 gene induction entry in the assay with BCL2 (Table 2b) is given as “− (− Indicates less than 2 fold induction)”. Besides, the HMOX gene induction entry with HMOX (Table 2b) is “+ (+ indicates a induction of greater than 2 fold)”. The HSPA1a gene induction entry in the assay with HSPA1a (Table 2b) was “− (− Indicates less than 2 fold induction)”. Besides, the TUB1 gene induction result in the assay with TUB1 (Table 2a) is recorded as “− (− Indicates less than 2 fold induction)”. For the same compound, the DDIT3 gene induction result in the assay with DDIT3 (Table 2a) is reported as “+ (+ indicates a induction of greater than 2 fold)”. The GCLM gene induction result in the assay with GCLM (Table 2a) is “− (− Indicates less than 2 fold induction)”. Further, in the assay on firefly luciferase (Table 2a), the “Lucif (luciferase activity induction)” value is given as “+ (+ indicates a induction of greater than 2 fold)”.

Consider `N#CC1=C(N)NC2=C(C(=O)CC(c3ccccc3)C2)C1c1ccc(F)cc1` (stereo not shown) [drawing 27/NH2/CN/p-F/H], for which the HspA5 gene induction entry in the assay with HspA5 (Table 2b) is recorded as “− (− Indicates less than 2 fold induction)”. Besides, the BCL2 gene induction entry in the assay with BCL2 (Table 2b) was “− (− Indicates less than 2 fold induction)”. Besides, the HMOX gene induction result in the assay with HMOX (Table 2b) was “− (− Indicates less than 2 fold induction)”. Also, in the assay on HSPA1a (Table 2b), the HSPA1a gene induction result was “+ (+ indicates a induction of greater than 2 fold)”. In the assay on TUB1 (Table 2a), the TUB1 gene induction result is recorded as “− (− Indicates less than 2 fold induction)”. Further, in the assay with DDIT3 (Table 2a), the DDIT3 gene induction entry is “+ (+ indicates a induction of greater than 2 fold)”. In addition, the GCLM gene induction result with GCLM (Table 2a) is given as “− (− Indicates less than 2 fold induction)”. Besides, the “Lucif (luciferase activity induction)” value with firefly luciferase (Table 2a) is “+ (+ indicates a induction of greater than 2 fold)”.

With `CCCc1n[nH]c2c1C(c1ccccc1C(F)(F)F)C(C#N)=C(N)O2` (stereo not shown) [drawing 28/(CH2)2Me/2-CF3 #2], the HspA5 gene induction result in the assay on HspA5 (Table 3b) was “− (− Indicates less than 2 fold induction)”. In addition, the BCL2 gene induction entry in the assay with BCL2 (Table 3b) is reported as “− (− Indicates less than 2 fold induction)”. Besides, the HMOX gene induction entry in the assay with HMOX (Table 3b) is “+ (+ indicates a induction of greater than 2 fold)”. Besides, the HSPA1a gene induction entry with HSPA1a (Table 3b) is reported as “− (− Indicates less than 2 fold induction)”. For the same compound, the TUB1 gene induction entry with TUB1 (Table 3a) is given as “− (− Indicates less than 2 fold induction)”. For the same compound, the DDIT3 gene induction result with DDIT3 (Table 3a) is “− (− Indicates less than 2 fold induction)”. Moreover, in the assay on GCLM (Table 3a), the GCLM gene induction result was “+ (+ indicates a induction of greater than 2 fold)”. The “Lucif (luciferase activity induction)” value in the assay with firefly luciferase (Table 3a) is “+ (+ indicates a induction of greater than 2 fold)”.

Take `COc1ccc(C2CC(=O)C3=C(C2)NC(C)=C(C(=O)OCC(C)C)C3c2cccc(F)c2)cc1` (stereo not shown) [drawing 27/Me/COOCH2CHMe2/m-F/OMe]: the HspA5 gene induction result in the assay on HspA5 (Table 2b) is on record as “− (− Indicates less than 2 fold induction)”. In the assay on BCL2 (Table 2b), the BCL2 gene induction entry is “+ (+ indicates a induction of greater than 2 fold)”. Besides, in the assay on HMOX (Table 2b), the HMOX gene induction result is listed as “+ (+ indicates a induction of greater than 2 fold)”. Besides, the HSPA1a gene induction entry in the assay with HSPA1a (Table 2b) was “+ (+ indicates a induction of greater than 2 fold)”. For the same compound, the TUB1 gene induction entry in the assay on TUB1 (Table 2a) was “− (− Indicates less than 2 fold induction)”. For the same compound, the DDIT3 gene induction result in the assay on DDIT3 (Table 2a) is “− (− Indicates less than 2 fold induction)”. For the same compound, the GCLM gene induction entry in the assay on GCLM (Table 2a) is on record as “+ (+ indicates a induction of greater than 2 fold)”.

Regarding `COC(=O)C1=C(C)Nc2c(c(=O)n(C)c(=O)n2C)C1c1ccc(F)cc1` (stereo not shown) [A], the HspA5 gene induction entry in the assay with HspA5 (Table 6) is recorded as “— (— Indicates less than 2 fold induction)”. In the assay on BCL2 (Table 6), the BCL2 gene induction entry is recorded as “+ (+ indicates a induction of greater than 2 fold)”. Further, the HMOX gene induction result in the assay with HMOX (Table 6) is listed as “— (— Indicates less than 2 fold induction)”. The HSPA1a gene induction result in the assay on HSPA1a (Table 6) was “— (— Indicates less than 2 fold induction)”. Besides, the TUB1 gene induction entry in the assay with TUB1 (Table 6) is listed as “— (— Indicates less than 2 fold induction)”. Besides, the DDIT3 gene induction result with DDIT3 (Table 6) is on record as “+ (+ indicates a induction of greater than 2 fold)”. Also, in the assay with GCLM (Table 6), the GCLM gene induction entry is “— (— Indicates less than 2 fold induction)”.
